Results as given in ChEMBL document CHEMBL1151558, “An efficient synthesis and biological activities of 19-nor-17-hydroxy-17-trifluoromethyl-4-estren-3-one and its analogs” (Bioorg Med Chem Lett, 1995).

Columns and labels:
Progesterone receptor = target: T1, Progesterone receptor (Rattus norvegicus, UniProt Q63449); test: Inhibition of [3H]R5020 binding to cytosolic progesterone receptor (PRc) of rat uterus
T1 sequence (Q63449 whole entry): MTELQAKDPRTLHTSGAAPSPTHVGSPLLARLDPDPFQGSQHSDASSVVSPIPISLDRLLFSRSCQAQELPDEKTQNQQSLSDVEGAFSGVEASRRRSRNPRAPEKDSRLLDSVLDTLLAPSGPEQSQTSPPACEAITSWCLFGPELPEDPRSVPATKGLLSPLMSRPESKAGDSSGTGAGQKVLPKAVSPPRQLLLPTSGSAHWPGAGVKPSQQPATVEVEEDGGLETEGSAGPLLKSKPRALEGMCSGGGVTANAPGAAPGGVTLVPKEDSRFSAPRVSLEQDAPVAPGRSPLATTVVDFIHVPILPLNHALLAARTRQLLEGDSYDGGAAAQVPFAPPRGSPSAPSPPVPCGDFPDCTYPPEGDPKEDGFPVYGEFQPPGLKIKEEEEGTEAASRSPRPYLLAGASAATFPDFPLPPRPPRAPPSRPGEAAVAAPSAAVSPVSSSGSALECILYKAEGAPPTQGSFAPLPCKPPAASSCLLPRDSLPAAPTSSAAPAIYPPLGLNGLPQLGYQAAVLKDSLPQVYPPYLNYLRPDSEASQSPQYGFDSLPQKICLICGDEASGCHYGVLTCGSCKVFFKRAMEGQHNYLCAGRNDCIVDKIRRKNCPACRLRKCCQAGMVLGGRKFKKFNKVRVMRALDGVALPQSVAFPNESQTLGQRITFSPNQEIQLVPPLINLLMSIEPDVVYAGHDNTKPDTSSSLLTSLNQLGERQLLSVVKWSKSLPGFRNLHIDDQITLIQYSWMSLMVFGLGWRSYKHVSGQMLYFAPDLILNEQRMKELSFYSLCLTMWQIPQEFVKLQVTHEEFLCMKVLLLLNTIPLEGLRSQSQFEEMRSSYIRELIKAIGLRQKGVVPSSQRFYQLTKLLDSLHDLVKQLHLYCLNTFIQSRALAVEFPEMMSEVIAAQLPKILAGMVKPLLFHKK

[1] = target: T2, Progesterone receptor (Rattus norvegicus) (UniProt Q63449); test: Binding affinity for cytosolic progesterone receptor (PRc) of rat uterus compared to RU-486
T2 sequence (whole entry): T1 sequence (Q63449 whole entry)

SMILES	IC50 (Progesterone receptor)	relative binding affinity (RBA) [1]
C[C@]12C=CC3=C4CCC(=O)C=C4CCC3C1CC[C@@]2(O)C(F)(F)F (some centres not stated)	9 nM	38.9
C[C@]12CCC3=C4CCC(=O)C=C4CCC3C1CC[C@@]2(O)C(F)(F)F (some centres not stated)	4.5 nM	77.8
C[C@]12CCC3C(CCC4=CC(=O)CC[C@@H]43)C1CC[C@@]2(O)C(F)(F)F (some centres not stated)	1.2 nM	292
CC#C[C@]1(O)CC[C@H]2[C@@H]3CCC4=CC(=O)CCC4=C3[C@@H](c3ccc(N(C)C)cc3)C[C@@]21C	–	100
